Assay results from US20250073210A1, “Use of Ergothioneine for Enhancing Glutathione Level” (priority 2022, published 2025).

Tests used:
total GSH [1] = assay: Example 2: oral L-ergothioneine on plasma glutathione in healthy humans; type: in vivo, human; conditions: Example 2, 200 mg orally once daily, single subject
total GSH [2] = assay: Example 3: oral L-ergothioneine 5, 15, 30 mg/day on plasma glutathione in healthy humans; type: in vivo, human
Text: A Baseline will be established looking at Total and Percent Reduced Glutathione. These same values will be measured at the end of the four weeks. Subjects will be contacted once a week while in the study for an assessment of compliance with intervention.
Study Population: Male and female subjects 25-75 years of age Number of Subjects: 5, assigned as follows: 1 subject will receive the GSH administered orally once weekly for 4 weeks; 1 subject will receive S-acetyl-glutathione supplemented orally once daily for 4 weeks; 3 subjects will receive 5, 15, 30 mg L-ergothioneine supplemented orally once daily for 4 weeks, respectively.
• 1. Individuals must be between 25-70 years of age with no known medical conditions that, in the investigator's opinion, may interfere with study participation. • 2. Subjects must present with mild to moderate signs oxidative stress or inflammation. • 3. Willingness to cooperate and participate by following Study requirements. • 4. Individuals must sign informed consent, photo release consent and confidentiality agreement.
• 1. […] Individuals currently taking certain medications or any dietary supplements, which in the opinion of the investigator might interfere with the study. This would include but not be limited to routine high dosage use of anti-inflammatory drugs (aspirin, ibuprofen, corticosteroids) immunosuppressive drugs or antihistamine medications), and insulin, anti-hypertensive drugs, and especially antioxidants. • 3. Individuals with uncontrolled metabolic diseases such as diabetes (Type I and II), hypertension, hyperthyroidism or hypothyroidism, severe chronic asthma, immunological disorders such as HIV positive, AIDS and systemic lupus erythematosus or mastectomy for cancer involving removal of lymph nodes. • 4. Women known to be pregnant, nursing or planning to become pregnant. • 5. Individuals participating in other clinical studies evaluating antioxidants or anti-inflammatory interventions.

[3] = system: body stores of glutathione; conditions: oral 250 or 1000 mg/day, cited from earlier work

Structure (SMILES) | % change from baseline in total GSH (total GSH [1]) [%] | Total GSH at Day 30 (total GSH [1]; baseline 727 μM) [µM] | Total GSH at Day 30 (total GSH [2]; Example 3, 200 mg orally once daily, single subject, baseline 733 μM) [µM] | Total GSH at Day 30 (total GSH [2]; Example 3, second sentence on a single subject with comparator intervention (see doubts)) [µM] | % change from baseline in total GSH (total GSH [2]; Example 3, single subject) [%] | % change from baseline in total GSH (total GSH [2]; Example 3, 1400 mg orally once weekly for 4 weeks, single subject, baseline 653 μM) [%] | Natural killer cell cytotoxicity ([3]; at six months) | Oxidized (GSSG) to reduced (GSH) glutathione ratio in whole blood ([3]; at six months) | Body stores of glutathione ([3]; six months, 54 non-smoking adults)
CC(=O)SC[C@H](NC(=O)CC[C@H](N)C(=O)O)C(=O)NCC(=O)O [SAG, S-acetyl-glutathione] | −25 | 547 | 461 | 503 | −37 |  |  |  | 
N[C@@H](CCC(=O)N[C@@H](CS)C(=O)NCC(=O)O)C(=O)O [glutathione] |  |  |  |  |  | −23 | favorable increases | improvement | significant increases
